Reference: the NIST ThermoML archive (doi:10.1021/acs.jced.9b00011)
Numbers after ± are expanded uncertainties.

Assays:
[1] = Crystal; DSC
[2] = Molar enthalpy of transition or fusion; settings: Crystal; DSC

| Triple point temperature [1] | Molar enthalpy of transition or fusion [2] | Compound |
| --- | --- | --- |
| 352.56 ± 2.3 K | 5.55 ± 1.1 kcal/mol | COc1ccc(OC)c(N)c1 [2,5-dimethoxyaniline] |
| 389.38 ± 3.7 K | 5.88 ± 0.908 kcal/mol | COc1cc(Cl)c(OC)cc1N [4-chloro-2,5-dimethoxyaniline] |
